Experimental data published in patent EP4745137A1 (Gluetacs Therapeutics (Shanghai) Co., Ltd., priority 2023, dated 2025).

How the values were obtained:
IKZF2 = target: T1, IKZF2 (Homo sapiens, UniProt Q96SW2+Q9UKS7); experiment: Western-blot assay of substrate protein degradation in hPBMCs, IKZF2; format: cell-based; settings: 24 hours of compound treatment, compounds tested at 50 nM and 500 nM (concentration of the table not stated)
T1 construct: endogenous in cells; host or cells: hPBMCs (Milecell Biotechnologies)

GSPT1 = target: T2, GSPT1 (Homo sapiens, UniProt P15170+Q96SW2); experiment: Western-blot assay of substrate protein degradation in hPBMCs, GSPT1; format: cell-based; settings: 24 hours of compound treatment, compounds tested at 50 nM and 500 nM (concentration of the table not stated)
T2 construct: endogenous in cells; host or cells: hPBMCs (Milecell Biotechnologies)

WEE1 = target: T3, WEE1 (Homo sapiens, UniProt P30291+Q96SW2); experiment: Western-blot assay of substrate protein degradation in hPBMCs, WEE1; format: cell-based; settings: 24 hours of compound treatment, compounds tested at 50 nM and 500 nM (concentration of the table not stated)
T3 construct: endogenous in cells; host or cells: hPBMCs (Milecell Biotechnologies)

[1] = target: T4, human Cereblon WT GST-tagged protein (Homo sapiens, UniProt Q96SW2); experiment: CRBN-binding affinity by HTRF (CEREBLON BINDING kit); settings: HTRF inhibitory activity, CEREBLON BINDING kit; read-out: HTRF IC50
T4 construct: purchased CISBIO 64BDCRBNPEH

IKZF3 = target: T5, IKZF3 (Homo sapiens, UniProt Q96SW2+Q9UKT9); experiment: Western-blot assay of substrate protein degradation in hPBMCs, IKZF3; format: cell-based; settings: 24 hours of compound treatment, compounds tested at 50 nM and 500 nM (concentration of the table not stated)
T5 construct: endogenous in cells; host or cells: hPBMCs (Milecell Biotechnologies)

CK1α = target: T6, CK1α (Homo sapiens, UniProt P48729+Q96SW2); experiment: Western-blot assay of substrate protein degradation in hPBMCs, CK1α; format: cell-based; settings: 24 hours of compound treatment, compounds tested at 50 nM and 500 nM (concentration of the table not stated)
T6 construct: endogenous in cells; host or cells: hPBMCs (Milecell Biotechnologies)

IKZF1 = target: T7, IKZF1 (Homo sapiens, UniProt Q13422+Q96SW2); experiment: Western-blot assay of substrate protein degradation in hPBMCs, IKZF1; format: cell-based; settings: 24 hours of compound treatment, compounds tested at 50 nM and 500 nM (concentration of the table not stated)
T7 construct: endogenous in cells; host or cells: hPBMCs (Milecell Biotechnologies)
T7 sequence (Q13422 whole entry): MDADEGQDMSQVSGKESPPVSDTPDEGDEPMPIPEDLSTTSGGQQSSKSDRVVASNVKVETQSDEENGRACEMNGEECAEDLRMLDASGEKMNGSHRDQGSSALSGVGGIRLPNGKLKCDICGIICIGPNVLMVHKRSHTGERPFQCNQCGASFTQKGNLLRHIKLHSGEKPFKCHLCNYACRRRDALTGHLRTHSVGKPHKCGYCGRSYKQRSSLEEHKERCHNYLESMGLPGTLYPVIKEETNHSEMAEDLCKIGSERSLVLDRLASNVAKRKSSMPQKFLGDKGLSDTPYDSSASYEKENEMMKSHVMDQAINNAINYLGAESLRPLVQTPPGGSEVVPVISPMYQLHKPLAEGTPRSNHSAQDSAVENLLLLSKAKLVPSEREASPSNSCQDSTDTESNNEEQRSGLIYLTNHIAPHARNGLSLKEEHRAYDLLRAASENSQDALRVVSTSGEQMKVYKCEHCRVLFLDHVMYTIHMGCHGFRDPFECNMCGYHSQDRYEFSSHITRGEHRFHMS
T7 sequence (Q96SW2 whole entry): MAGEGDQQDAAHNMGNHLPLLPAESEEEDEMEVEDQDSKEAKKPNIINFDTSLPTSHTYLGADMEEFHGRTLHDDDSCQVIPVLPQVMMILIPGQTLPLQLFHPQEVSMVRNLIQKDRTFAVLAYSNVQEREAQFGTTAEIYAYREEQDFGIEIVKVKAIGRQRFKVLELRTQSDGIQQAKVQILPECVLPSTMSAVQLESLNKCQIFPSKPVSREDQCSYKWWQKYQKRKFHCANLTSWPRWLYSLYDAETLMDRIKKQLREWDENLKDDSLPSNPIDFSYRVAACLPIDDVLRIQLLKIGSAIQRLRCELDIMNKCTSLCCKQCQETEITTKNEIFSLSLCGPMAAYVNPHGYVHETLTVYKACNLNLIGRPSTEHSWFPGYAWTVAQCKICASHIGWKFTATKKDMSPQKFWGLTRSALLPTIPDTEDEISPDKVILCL
T7 sequence (Q16531 whole entry partner): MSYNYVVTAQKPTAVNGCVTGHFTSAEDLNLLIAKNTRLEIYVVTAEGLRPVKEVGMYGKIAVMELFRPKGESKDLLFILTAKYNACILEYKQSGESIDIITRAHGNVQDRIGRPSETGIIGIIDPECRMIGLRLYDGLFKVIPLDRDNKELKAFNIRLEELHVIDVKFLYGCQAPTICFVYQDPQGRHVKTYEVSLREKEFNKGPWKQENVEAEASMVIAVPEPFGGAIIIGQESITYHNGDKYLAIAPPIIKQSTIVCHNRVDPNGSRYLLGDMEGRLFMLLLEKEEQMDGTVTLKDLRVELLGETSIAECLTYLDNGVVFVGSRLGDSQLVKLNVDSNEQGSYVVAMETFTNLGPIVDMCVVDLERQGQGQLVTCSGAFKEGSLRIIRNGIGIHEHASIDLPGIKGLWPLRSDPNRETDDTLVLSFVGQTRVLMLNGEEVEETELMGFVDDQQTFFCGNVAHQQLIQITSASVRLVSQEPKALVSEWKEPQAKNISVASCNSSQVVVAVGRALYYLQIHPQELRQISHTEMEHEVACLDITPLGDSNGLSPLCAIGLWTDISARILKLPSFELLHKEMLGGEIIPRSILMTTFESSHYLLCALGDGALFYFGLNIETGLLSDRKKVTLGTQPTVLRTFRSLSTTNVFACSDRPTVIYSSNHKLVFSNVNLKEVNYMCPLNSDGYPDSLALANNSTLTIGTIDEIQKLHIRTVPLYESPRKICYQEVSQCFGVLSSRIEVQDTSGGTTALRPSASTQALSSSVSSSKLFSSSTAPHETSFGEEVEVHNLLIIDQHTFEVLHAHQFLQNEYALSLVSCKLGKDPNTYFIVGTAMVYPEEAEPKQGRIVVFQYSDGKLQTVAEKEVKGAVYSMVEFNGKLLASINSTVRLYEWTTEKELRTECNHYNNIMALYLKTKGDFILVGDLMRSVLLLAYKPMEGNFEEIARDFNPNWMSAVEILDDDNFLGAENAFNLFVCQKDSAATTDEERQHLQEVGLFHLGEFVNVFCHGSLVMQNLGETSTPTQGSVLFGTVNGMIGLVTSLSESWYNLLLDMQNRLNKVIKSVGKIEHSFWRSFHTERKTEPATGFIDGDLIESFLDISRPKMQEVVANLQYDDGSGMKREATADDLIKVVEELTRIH

T5 sequence (Q9UKT9 whole entry): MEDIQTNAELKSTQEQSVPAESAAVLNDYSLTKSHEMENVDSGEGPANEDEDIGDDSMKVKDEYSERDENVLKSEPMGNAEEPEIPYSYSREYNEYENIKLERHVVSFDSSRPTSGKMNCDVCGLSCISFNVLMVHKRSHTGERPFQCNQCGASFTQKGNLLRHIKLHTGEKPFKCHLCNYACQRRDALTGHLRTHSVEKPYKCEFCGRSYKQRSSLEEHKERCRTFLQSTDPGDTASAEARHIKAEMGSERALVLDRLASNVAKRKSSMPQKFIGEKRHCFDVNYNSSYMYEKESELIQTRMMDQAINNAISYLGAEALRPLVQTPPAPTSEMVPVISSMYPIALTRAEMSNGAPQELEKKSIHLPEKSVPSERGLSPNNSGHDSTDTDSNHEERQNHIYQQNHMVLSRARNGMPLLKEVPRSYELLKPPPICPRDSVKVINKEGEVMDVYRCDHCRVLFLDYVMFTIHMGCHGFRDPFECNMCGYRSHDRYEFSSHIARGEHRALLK
T5 sequence (Q96SW2 whole entry): as the sequence (Q96SW2 whole entry) above
T5 sequence (Q16531 whole entry partner): as the sequence (Q16531 whole entry partner) above
T6 sequence (P48729 whole entry): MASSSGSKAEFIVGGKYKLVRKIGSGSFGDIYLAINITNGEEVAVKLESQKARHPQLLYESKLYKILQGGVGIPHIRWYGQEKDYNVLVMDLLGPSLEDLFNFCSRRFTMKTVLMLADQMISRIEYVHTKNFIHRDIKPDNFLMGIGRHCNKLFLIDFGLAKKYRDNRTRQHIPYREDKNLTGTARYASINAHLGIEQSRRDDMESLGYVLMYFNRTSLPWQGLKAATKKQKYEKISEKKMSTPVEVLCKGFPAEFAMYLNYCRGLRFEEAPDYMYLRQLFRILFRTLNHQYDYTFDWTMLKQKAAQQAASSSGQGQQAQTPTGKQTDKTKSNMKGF
T6 sequence (Q96SW2 whole entry): as the sequence (Q96SW2 whole entry) above
T6 sequence (Q16531 whole entry partner): as the sequence (Q16531 whole entry partner) above
T1 sequence (Q9UKS7 whole entry): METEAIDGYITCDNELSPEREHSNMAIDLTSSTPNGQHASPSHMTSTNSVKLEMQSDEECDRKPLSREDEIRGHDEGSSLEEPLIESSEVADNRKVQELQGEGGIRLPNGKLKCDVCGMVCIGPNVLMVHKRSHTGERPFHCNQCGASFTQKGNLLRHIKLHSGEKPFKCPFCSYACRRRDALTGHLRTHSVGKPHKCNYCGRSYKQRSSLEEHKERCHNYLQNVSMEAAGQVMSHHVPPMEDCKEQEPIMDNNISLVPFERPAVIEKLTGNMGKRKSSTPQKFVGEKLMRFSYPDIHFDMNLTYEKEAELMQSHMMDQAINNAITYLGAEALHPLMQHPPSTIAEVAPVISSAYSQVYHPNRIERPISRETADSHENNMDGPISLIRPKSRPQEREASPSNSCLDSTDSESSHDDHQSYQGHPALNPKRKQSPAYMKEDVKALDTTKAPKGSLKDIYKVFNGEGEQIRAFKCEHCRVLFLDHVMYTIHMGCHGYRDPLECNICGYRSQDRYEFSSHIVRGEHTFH
T1 sequence (Q96SW2 whole entry): as the sequence (Q96SW2 whole entry) above
T1 sequence (Q16531 whole entry partner): as the sequence (Q16531 whole entry partner) above
T3 sequence (P30291 whole entry): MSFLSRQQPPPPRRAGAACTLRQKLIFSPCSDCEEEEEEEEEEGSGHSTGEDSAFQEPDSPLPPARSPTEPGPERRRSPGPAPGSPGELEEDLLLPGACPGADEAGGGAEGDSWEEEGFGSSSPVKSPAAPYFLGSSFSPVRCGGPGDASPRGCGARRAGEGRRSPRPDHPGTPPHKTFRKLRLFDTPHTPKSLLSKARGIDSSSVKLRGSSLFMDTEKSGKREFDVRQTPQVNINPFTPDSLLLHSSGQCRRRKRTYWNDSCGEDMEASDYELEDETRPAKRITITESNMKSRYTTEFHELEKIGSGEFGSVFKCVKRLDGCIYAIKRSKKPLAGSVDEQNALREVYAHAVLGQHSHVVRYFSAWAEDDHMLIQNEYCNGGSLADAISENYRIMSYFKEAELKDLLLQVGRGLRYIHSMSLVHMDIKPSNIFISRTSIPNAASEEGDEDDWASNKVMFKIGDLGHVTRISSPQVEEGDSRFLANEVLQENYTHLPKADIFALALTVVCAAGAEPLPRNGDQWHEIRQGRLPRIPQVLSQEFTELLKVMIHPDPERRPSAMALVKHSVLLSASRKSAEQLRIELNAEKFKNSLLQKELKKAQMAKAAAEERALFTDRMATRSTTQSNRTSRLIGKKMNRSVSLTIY
T3 sequence (Q96SW2 whole entry): as the sequence (Q96SW2 whole entry) above
T3 sequence (Q16531 whole entry partner): as the sequence (Q16531 whole entry partner) above
T4 sequence (Q96SW2 whole entry): as the sequence (Q96SW2 whole entry) above

Row | Compound | IKZF2 substrate protein remaining % (IKZF2) | GSPT1 substrate protein remaining % (GSPT1) | Weel substrate protein remaining % (WEE1) | IC50 [1] | IKZF3 substrate protein remaining % (IKZF3) | CK1a substrate protein remaining % (CK1α) | IKZF 1 substrate protein remaining % (IKZF1)
1 | CC(C)c1cc2c(N3CCN(Cc4ccc5c(c4)CN(C4CCC(=O)NC4=O)C5=O)CC3)ncnc2s1 (stereo not drawn) [GT-04705, 3-(5-((4-(6-isopropylthieno[2,3-d]pyrimidin-4-yl)piperazin-1-yl)methyl)-1-oxoisoindolin-2-yl)piperidine-2,6-dione] | A (0% ≤ substrate protein remaining % ≤ 80%) | A (0% ≤ substrate protein remaining % ≤ 80%) | B (80%< substrate protein remaining %≤ 100%) | 500 to 1000 nM | A (0% ≤ substrate protein remaining % ≤ 80%) | A (0% ≤ substrate protein remaining % ≤ 80%) | A (0% ≤ substrate protein remaining % ≤ 80%)
2 | Cc1sc2ncnc(N3CCN(Cc4ccc5c(c4)CN(C4CCC(=O)NC4=O)C5=O)CC3)c2c1C (stereo not drawn) [GT-04706, 3-(5-((4-(5,6-dimethylthieno[2,3-d]pyrimidin-4-yl)piperazin-1-yl)methyl)-1-oxoisoindolin-2-yl)piperidine-2,6-dione] | A (0% ≤ substrate protein remaining % ≤ 80%) | A (0% ≤ substrate protein remaining % ≤ 80%) | B (80%< substrate protein remaining %≤ 100%) | 500 to 1000 nM | A (0% ≤ substrate protein remaining % ≤ 80%) | A (0% ≤ substrate protein remaining % ≤ 80%) | A (0% ≤ substrate protein remaining % ≤ 80%)
3 | Cc1sc2ncnc(N3CCCN(Cc4ccc5c(c4)CN(C4CCC(=O)NC4=O)C5=O)CC3)c2c1C (stereo not drawn) [GT-04707, 3-(5-((4-(5,6-dimethylthieno[2,3-d]pyrimidin-4-yl)-1,4-diazepan-1-yl)methyl)-1-oxoisoindolin-2-yl)piperidine-2,6-dione] | A (0% ≤ substrate protein remaining % ≤ 80%) | A (0% ≤ substrate protein remaining % ≤ 80%) | B (80%< substrate protein remaining %≤ 100%) | < 500 nM | A (0% ≤ substrate protein remaining % ≤ 80%) | A (0% ≤ substrate protein remaining % ≤ 80%) | A (0% ≤ substrate protein remaining % ≤ 80%)
4 | O=C1CCC(N2Cc3cc(CN4CCN(c5ncnc6scc(-c7ccccc7)c56)CC4)ccc3C2=O)C(=O)N1 (stereo not drawn) [GT-04709, 3-(1-oxo-5-((4-(5-phenylthieno[2,3-d]pyrimidin-4-yl)piperazin-1-yl)methyl)isoindolin-2-yl)piperidine-2,6-dione] | B (80%< substrate protein remaining %≤ 100%) | A (0% ≤ substrate protein remaining % ≤ 80%) | B (80%< substrate protein remaining %≤ 100%) | < 500 nM | A (0% ≤ substrate protein remaining % ≤ 80%) | A (0% ≤ substrate protein remaining % ≤ 80%) | B (80%< substrate protein remaining %≤ 100%)
5 | O=C1CCC(N2Cc3cc(CN4CCC(n5c(=O)[nH]c6cc(F)ccc65)CC4)ccc3C2=O)C(=O)N1 (stereo not drawn) [GT-04714, 3-(5-((4-(5-fluoro-2-oxo-2,3-dihydro-1H-benzo[d]imidazol-1-yl)piperidin-1-yl)methyl)-1-oxoisoindolin-2-yl)piperidine-2,6-dione] | A (0% ≤ substrate protein remaining % ≤ 80%) | A (0% ≤ substrate protein remaining % ≤ 80%) | A (0% ≤ substrate protein remaining % ≤ 80%) | 500 to 1000 nM | A (0% ≤ substrate protein remaining % ≤ 80%) | A (0% ≤ substrate protein remaining % ≤ 80%) | A (0% ≤ substrate protein remaining % ≤ 80%)
6 | O=C1CCC(N2Cc3cc(CN4CCC(c5ccon5)CC4)ccc3C2=O)C(=O)N1 (stereo not drawn) [GT-04715, 3-(5-((4-(isoxazol-3-yl)piperidin-1-yl)methyl)-1-oxoisoindolin-2-yl)piperidine-2,6-dione] | A (0% ≤ substrate protein remaining % ≤ 80%) | A (0% ≤ substrate protein remaining % ≤ 80%) | A (0% ≤ substrate protein remaining % ≤ 80%) | 1500 to 1900 nM | A (0% ≤ substrate protein remaining % ≤ 80%) | A (0% ≤ substrate protein remaining % ≤ 80%) | A (0% ≤ substrate protein remaining % ≤ 80%)
7 | Cc1cc2c(C3CCN(Cc4ccc5c(c4)CN(C4CCC(=O)NC4=O)C5=O)CC3)ncnc2s1 (stereo not drawn) [GT-04717, 3-(5-((4-(6-methylthieno[2,3-d]pyrimidin-4-yl)piperidin-1-yl)methyl)-1-oxoisoindolin-2-yl)piperidine-2,6-dione] | A (0% ≤ substrate protein remaining % ≤ 80%) | A (0% ≤ substrate protein remaining % ≤ 80%) | B (80%< substrate protein remaining %≤ 100%) | 500 to 1000 nM | A (0% ≤ substrate protein remaining % ≤ 80%) | B (80%< substrate protein remaining %≤ 100%) | B (80%< substrate protein remaining %≤ 100%)
8 | O=C1CCC(N2Cc3cc(CN4CCN(c5ncc6ccsc6n5)CC4)ccc3C2=O)C(=O)N1 (stereo not drawn) [GT-04725, 3-(1-oxo-5-((4-(thieno[2,3-d]pyrimidin-2-yl)piperazin-1-yl)methyl)isoindolin-2-yl)piperidine-2,6-dione] | B (80%< substrate protein remaining %≤ 100%) | A (0% ≤ substrate protein remaining % ≤ 80%) | B (80%< substrate protein remaining %≤ 100%) | < 500 nM | B (80%< substrate protein remaining %≤ 100%) | B (80%< substrate protein remaining %≤ 100%) | B (80%< substrate protein remaining %≤ 100%)
9 | Cc1ccsc1C1=CCN(Cc2cccc3c2CN(C2CCC(=O)NC2=O)C3=O)CC1 (stereo not drawn) [GT-04728, 3-(4-((4-(3-methylthiophen-2-yl)-3,6-dihydropyridin-1(2H)-yl)methyl)-1-oxoisoindolin-2-yl)piperidine-2,6-dione] | B (80%< substrate protein remaining %≤ 100%) | A (0% ≤ substrate protein remaining % ≤ 80%) | B (80%< substrate protein remaining %≤ 100%) | 1000 to 1500 nM | B (80%< substrate protein remaining %≤ 100%) | B (80%< substrate protein remaining %≤ 100%) | B (80%< substrate protein remaining %≤ 100%)
